Assays:
Type in all cases: biochemical
Tc AlaRS = target: T1, Tc AlaRS (Trypanosoma cruzi, UniProt Q4D747); assay: aminoacylation of Tc tRNA-Ala with […]-Ala; details: labelled compound, ATP
T1 construct: gene Tc00.1047053506863.10; codon-optimised synthetic gene in pET21b; C-terminal 6x-His tag; expressed in E. coli XJb(DE3)
T1 sequence (Q4D747 1-959): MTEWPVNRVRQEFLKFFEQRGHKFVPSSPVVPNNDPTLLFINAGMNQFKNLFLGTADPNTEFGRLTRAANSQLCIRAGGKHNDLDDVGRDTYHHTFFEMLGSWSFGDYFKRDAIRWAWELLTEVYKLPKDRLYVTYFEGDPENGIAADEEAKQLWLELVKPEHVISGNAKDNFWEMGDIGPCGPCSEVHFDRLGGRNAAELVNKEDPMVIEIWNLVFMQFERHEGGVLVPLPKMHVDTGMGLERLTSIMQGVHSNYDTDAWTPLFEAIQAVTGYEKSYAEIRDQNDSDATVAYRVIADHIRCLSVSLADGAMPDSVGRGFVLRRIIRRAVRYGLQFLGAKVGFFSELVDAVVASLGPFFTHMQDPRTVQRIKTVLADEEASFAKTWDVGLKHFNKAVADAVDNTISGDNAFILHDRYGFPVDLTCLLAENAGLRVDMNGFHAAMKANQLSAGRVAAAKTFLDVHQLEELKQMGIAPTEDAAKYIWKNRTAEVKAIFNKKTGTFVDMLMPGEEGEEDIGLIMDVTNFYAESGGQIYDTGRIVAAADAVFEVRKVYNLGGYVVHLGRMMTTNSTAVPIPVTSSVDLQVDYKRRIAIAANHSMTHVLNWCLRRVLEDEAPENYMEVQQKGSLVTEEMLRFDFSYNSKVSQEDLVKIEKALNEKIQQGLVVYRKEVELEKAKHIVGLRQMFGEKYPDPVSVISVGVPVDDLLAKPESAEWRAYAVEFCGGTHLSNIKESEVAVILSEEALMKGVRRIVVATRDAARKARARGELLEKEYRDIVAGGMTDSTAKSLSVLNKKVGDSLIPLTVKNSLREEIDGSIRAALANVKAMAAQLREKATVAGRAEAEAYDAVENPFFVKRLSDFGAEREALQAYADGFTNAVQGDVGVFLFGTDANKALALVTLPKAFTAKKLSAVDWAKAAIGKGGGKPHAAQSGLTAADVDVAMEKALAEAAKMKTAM

human AlaRS [1] = target: T2, human AlaRS (Homo sapiens, UniProt P49588); assay: ATP/PPi exchange (amino acid activation); details: 2 mM ATP, 2 mM [32P]-PPi, 10 mM Mg2+, pH 7.2, 37 °C, 90 μM alanine
T2 construct: gene AARS1; pET21a, C-terminal 6x-His tag; expressed in E. coli Rosetta(DE3)
T2 sequence (P49588 1-968): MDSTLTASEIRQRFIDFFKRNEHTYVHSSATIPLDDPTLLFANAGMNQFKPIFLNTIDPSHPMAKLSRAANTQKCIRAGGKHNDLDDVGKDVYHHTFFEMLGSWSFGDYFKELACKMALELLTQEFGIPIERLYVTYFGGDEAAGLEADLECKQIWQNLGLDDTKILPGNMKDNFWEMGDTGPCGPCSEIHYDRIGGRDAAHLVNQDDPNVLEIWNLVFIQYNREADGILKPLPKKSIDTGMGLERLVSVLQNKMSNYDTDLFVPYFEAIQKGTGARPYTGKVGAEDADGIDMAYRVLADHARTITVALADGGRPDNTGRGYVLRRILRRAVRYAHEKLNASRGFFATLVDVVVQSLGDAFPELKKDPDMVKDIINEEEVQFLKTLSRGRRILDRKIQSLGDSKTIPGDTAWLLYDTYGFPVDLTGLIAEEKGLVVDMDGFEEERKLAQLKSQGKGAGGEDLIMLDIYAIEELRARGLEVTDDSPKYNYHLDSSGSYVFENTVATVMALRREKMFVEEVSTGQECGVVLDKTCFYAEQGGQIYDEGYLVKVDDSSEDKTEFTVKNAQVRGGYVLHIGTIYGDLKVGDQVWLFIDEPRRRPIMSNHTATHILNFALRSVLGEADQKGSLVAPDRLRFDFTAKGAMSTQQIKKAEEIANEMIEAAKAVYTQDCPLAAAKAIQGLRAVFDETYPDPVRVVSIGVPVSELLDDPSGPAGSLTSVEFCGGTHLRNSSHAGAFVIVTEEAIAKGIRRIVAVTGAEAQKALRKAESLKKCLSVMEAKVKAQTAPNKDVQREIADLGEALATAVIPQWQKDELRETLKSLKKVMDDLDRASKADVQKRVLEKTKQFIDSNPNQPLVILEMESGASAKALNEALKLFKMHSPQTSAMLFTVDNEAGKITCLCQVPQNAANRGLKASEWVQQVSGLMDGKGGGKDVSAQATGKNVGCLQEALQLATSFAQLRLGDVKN

human AlaRS [2] = target: T2, human AlaRS; assay: ATP/PPi exchange; details: 2 mM ATP, 90 μM alanine, 2 mM [32P]-PPi, 10 mM Mg2+, pH 7.2, 37 °C
Lm AlaRS = target: T3, Lm AlaRS (Leishmania major, UniProt Q4QBJ3); assay: ATP/PPi exchange; details: 2 mM ATP, 90 μM alanine, 2 mM [32P]-PPi, 10 mM Mg2+, pH 7.2, 37 °C
T3 construct: gene LMJF_22_1540; codon-optimised synthetic gene in pTYB2; C-terminal intein tag cleaved off; expressed in E. coli BL21(DE3)
T3 sequence (Q4QBJ3 1-962): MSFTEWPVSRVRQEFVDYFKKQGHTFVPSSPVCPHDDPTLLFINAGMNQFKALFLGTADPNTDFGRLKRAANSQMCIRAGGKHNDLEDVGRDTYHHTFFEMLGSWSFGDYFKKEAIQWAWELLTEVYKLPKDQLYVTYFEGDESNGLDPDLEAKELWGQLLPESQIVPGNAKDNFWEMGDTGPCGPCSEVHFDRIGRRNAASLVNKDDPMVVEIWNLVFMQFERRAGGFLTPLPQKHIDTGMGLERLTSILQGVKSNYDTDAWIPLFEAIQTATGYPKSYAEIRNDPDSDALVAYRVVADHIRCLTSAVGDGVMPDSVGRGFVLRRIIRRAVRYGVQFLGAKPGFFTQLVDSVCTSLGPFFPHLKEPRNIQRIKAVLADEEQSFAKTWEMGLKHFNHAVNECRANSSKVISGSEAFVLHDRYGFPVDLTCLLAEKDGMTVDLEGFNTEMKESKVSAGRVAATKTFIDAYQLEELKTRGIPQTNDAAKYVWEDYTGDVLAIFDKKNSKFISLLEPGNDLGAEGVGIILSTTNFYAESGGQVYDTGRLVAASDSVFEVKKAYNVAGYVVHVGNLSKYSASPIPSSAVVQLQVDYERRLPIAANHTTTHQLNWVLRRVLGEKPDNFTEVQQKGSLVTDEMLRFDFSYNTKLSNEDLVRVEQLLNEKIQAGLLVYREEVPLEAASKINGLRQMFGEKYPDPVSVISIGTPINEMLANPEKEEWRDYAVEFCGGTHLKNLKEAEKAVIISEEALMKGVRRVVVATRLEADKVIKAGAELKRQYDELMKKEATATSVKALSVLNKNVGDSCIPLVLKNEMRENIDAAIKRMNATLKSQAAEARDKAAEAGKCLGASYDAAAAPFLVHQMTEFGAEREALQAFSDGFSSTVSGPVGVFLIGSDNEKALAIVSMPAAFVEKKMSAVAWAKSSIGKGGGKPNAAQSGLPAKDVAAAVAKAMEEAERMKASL

Lm ThrRS = target: T4, Lm ThrRS (Leishmania major, UniProt E9AEW4); assay: aminoacylation of Lm tRNA-Thr with […]-Thr; details: labelled compound, ATP
T4 construct: gene LMJF_35_1410; codon-optimised synthetic gene in pTYB2; C-terminal intein tag cleaved off; expressed in E. coli BL21(DE3)
T4 sequence (E9AEW4 1-787): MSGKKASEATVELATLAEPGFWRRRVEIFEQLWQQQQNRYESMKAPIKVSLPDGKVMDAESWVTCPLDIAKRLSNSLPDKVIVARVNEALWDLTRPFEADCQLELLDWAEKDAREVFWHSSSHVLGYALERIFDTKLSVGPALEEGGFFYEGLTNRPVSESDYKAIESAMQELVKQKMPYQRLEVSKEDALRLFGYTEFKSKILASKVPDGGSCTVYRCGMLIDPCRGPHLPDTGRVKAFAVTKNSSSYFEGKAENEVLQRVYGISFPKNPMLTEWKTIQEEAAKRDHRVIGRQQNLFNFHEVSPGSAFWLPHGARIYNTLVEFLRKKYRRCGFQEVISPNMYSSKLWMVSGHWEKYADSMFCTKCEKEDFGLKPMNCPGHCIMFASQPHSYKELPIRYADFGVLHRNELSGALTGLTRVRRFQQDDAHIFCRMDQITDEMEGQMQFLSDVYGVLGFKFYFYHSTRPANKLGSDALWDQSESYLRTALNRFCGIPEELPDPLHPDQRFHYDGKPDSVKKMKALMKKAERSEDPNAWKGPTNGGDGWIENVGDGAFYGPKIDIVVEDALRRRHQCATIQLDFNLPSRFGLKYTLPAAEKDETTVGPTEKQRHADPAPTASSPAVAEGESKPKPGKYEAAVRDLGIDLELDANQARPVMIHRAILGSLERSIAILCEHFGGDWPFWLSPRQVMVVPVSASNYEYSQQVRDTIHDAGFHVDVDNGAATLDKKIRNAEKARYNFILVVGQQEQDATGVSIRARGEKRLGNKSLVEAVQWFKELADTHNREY

C[C@H](N)C(=O)O [alanine]
aminoacylation of Tc tRNA-Ala with [14C]-Ala (Tc AlaRS): aminoacylation inhibition assay using Tc AlaRS and tRNA^Ala
ATP/PPi exchange (amino acid activation) (human AlaRS [1]): Treatment of the human AlaRS enzyme with the MNP inhibitors had no effect on amino acid activation

Nc1ncnc2c1ncn2[C@@H]1O[C@H](COP(=O)(O)OP(=O)(O)OP(=O)(O)O)[C@@H](O)[C@H]1O [ATP]
ATP/PPi exchange (human AlaRS [2]): we used pyrophosphate exchange to monitor ATP-dependent amino acid activation
ATP/PPi exchange (Lm AlaRS): we used pyrophosphate exchange to monitor ATP-dependent amino acid activation

C[C@@H](O)[C@H](N)C(=O)O [threonine]
aminoacylation of Lm tRNA-Thr with [14C]-Thr (Lm ThrRS): re-screened against Lm Threonyl-tRNA synthetase (ThrRS) and tRNA^Thr aminoacylation

Source: publication PMC7046186, “Targeting tRNA-synthetase interactions towards novel therapeutic discovery against eukaryotic pathogens” (PLoS Neglected Tropical Diseases, 2020)
